Molecular target: T1, EP1 receptor (Mus musculus, UniProt P35375)
T1 sequence (P35375 1-405): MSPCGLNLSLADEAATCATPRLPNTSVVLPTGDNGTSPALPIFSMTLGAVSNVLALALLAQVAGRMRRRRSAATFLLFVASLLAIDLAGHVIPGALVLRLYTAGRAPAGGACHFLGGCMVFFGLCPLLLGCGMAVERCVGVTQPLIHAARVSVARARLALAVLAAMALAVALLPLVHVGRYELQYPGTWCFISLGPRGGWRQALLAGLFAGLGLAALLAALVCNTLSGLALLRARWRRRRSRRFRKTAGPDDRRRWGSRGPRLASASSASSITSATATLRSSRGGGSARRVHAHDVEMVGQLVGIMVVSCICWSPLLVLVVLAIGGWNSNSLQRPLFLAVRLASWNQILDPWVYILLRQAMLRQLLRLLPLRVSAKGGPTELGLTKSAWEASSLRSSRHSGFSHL
Assay: Fura-2 intracellular Ca2+ dose-response in EP1-HEK cells
Format: cell-based

EC50: 12.8 nM
Compound: CCCCC[C@H](O)/C=C/[C@H]1[C@H](O)CC(=O)[C@@H]1C/C=C\CCCC(=O)O [PGE2]

— PMC4186417 (Pharmacology Research & Perspectives, 2014)
